Test results from patent US20140213604A1, “PROTEIN KINASE C AS A TARGET FOR THE TREATMENT OF RESPIRATORY SYNCYTIAL VIRUS” (priority 2002, published 2014).
Like-named read-outs stand apart in the source and are kept apart here. Where a SMILES comes first, the peptide text is derived from it. The star is where a group is joined. Myristoyl = CCCCCCCCCCCCCC(=O)*

How the values were obtained:
[1] = tested on: RSV infection of NHBE cells; assay: RSV infection of NHBE cells treated with signaling inhibitors, FITC anti-RSV mab staining and cell counting; type: cell-based, respiratory syncytial virus (RSV); settings: inhibitor 2 h before and 48 h after RSV, AG 490 50 μM, PD98059 80 μM, RO318220 3 μM, Wortmannin 300 nM
Procedure: NHBE cells were treated with different inhibitors for 2 hours at concentration as: AG 490 (50 μM), PD98059 (80 μM), RO318220 (3 μM), and Wortmannin (300 nM). DMSO was used as a mock control. The inhibitors were removed and the cells were infected with RSV for 2 hours. After the RSV was removed, the growth medium with the same concentration of inhibitors was added to the cells for 48 hours. The cells were rinsed with PBS prior to staining with FITC-labeled Anti-RSV monoclonal antibody (mab) (CHEMICON, Temecula, Calif.). The total cells and RSV positive cells were counted randomly from 15 to 20 different spots.
To determine if different signaling molecules related to the ERK pathway are required for a successful RSV infection, primary NHBE cells were exposed to various inhibitors previously to being infected with a sucrose-purified RSV preparation. […] Also, other PKC isoforms are activated later during the infection, which could potentially play a role in the late phase of ERK activation (Monick, M. et al., J Immunol, 166(4):2681-2687, 2001).

[2] = tested on: RSV infection of NHBE cells; assay: RSV infection of NHBE cells pre-treated with PKC inhibitors, single cell immunofluorescence assay; type: cell-based, respiratory syncytial virus (RSV); settings: for number of infected cells, dose dependence: inhibitor 30 min before infection; for IC50: 16 h, read-out: concentration at which 50% inhibition of infected cells was reached

| Compound | number of RSV infected cells [1] | number of infected cells, dose dependence ([2]; NHBE cells, RSV 1 MOI) | also measured |
| --- | --- | --- | --- |
| N#C/C(=C/c1ccc(O)c(O)c1)C(=O)NCc1ccccc1 [AG490] | significant reduction | – | number of RSV infected cells ([1]; listed as AG 490): substantially decrease |
| COc1ccc2c(c[n+](C)c3c4cc5c(cc4ccc23)OCO5)c1OC [Chelerythrine] | – | reduced in a dose-dependent manner | IC50 ([2]; human respiratory syncytial virus, NHBE): 7.5 µM |
| CCCCCCCCCCCCCC(=O)N[C@@H](Cc1ccccc1)C(=O)N[C@@H](C)C(=O)N[C@@H](CCCNC(=N)N)C(=O)N[C@@H](CCCCN)C(=O)NCC(=O)N[C@@H](C)C(=O)N[C@@H](CC(C)C)C(=O)N[C@@H](CCCNC(=N)N)C(=O)N[C@@H](CCC(N)=O)C(N)=O [N-Myr-Phe-Ala-Arg-Lys-Gly-Ala-Leu-Arg-Gln] (Myristoyl-FARKGALRQ-NH2; N-terminus and C-terminus assumed) | – | – | solubility in water: soluble in water |
| COc1cccc(-c2cc(=O)c3ccccc3o2)c1N [PD98059] | significant reduction | – | – |
| Cn1cc(C2=C(c3cn(CCCSC(=N)N)c4ccccc34)C(=O)NC2=O)c2ccccc21 [Ro318220] | significant reduction | – | number of RSV infected cells ([1]; listed as RO318220): substantially decrease |
| Calphostin C | – | reduced in a dose-dependent manner | IC50 ([2]; NHBE cells, RSV 1 MOI): 0.375 µM |
